{"source": "patent US11344534B2", "about": "“Cholinergic agonism for the treatment of pancreatic cancer” (priority 2017, dated 2022)", "key": {"[1]": {"tested_on": "KC mice", "assay": "Vagotomized KC mice (KC+VxPP) treated with bethanechol in drinking water", "format": "in vivo, mouse", "conditions": "for pancreatic tumor (PDAC) incidence: bethanechol 400 μg/ml in drinking water, at 20 weeks; for pancreatic CD44 expression: bethanechol vs KC+VxPP controls, immunostaining", "experimental": "Thus, KC mice that underwent vagotomy treated with or without Bethanechol, a broad muscarinic agonist, were compared. Bethanechol treatment (400 μg/ml) started immediately after receiving surgery and continued till 20 weeks.\nK-Ras^+/LSL-G12D, p53^+/R172H, and Pdx-1-Cre mice were provided by Dr. Kenneth Olive (Columbia University). M1RKO mice were purchased from the Jackson Laboratory. KC mice and KPC mice were crossed with M1RKO mice. For several experiments, KC mice received pyloroplasty with or without vagotomy at 8 weeks and KC+VxPP mice were treated with or without bethanechol (400 μg/ml) after surgery immediately. They were sacrificed at 20 weeks. In addition, KPC mice were treated with gemcitabine biweekly and with or without bethanechol when the tumor size of 3-5 mm detected using ultrasound. They were sacrificed when the mice were moribund. For liver metastatic experiments, WT type C57/B6 mice received spleen injection and hemi-splenectomy. […] They were sacrificed when the mice were moribund.\nBethanechol treatment (400 μg/ml in drinking water) was started in KC mice at 8 weeks, immediately after the mice received surgery, and continued until 20 weeks of age.\nLSL-Kras^+/LSL-G12D, LSL-Trp53^+/R172H, and Pdx1-Cre mice were bred by Dr. Kenneth P. Olive and co-workers. Chrm1KO mice (C57BL/6-Chrm1tm1 Stl/J, (M1RKO) mice^1 were purchased from the Jackson Laboratory. KC mice and KPC mice were crossed with M1RKO mice. In the vagotomy experiments, KC mice received pyloroplasty with or without vagotomy at 8 weeks, and some KC+VxPP mice were treated with bethanechol ([…] in drinking water) immediately after surgery and then sacrificed at 20 weeks. KPC mice in treatment studies were palpated weekly for tumors in the pancreas. Once a tumor was suspected, KPC mice were screened by VEVO 2100—Ultrasound Imaging System (FUJIFILM VisualSonics) for pancreatic cancer. KPC mice were treated with gemcitabine, given by i.p. injection 100 mg/kg biweekly, with or without bethanechol, when a tumor size of 3-5 mm was detected using ultrasound. Mice were sacrificed when the mice were moribund. NOD/SCID mice were implanted with Panc1 cells subcutaneously and sacrificed at 30 days after implantation. For liver metastatic experiments, WT type C57/B6 mice received a splenic injection of labeled Panc02 cells, followed by hemi-splenectomy. The mice were then divided into three groups. […] Mice were then sacrificed when moribund. At necropsy, hepatic metastases that could clearly be identified as tumor nodules on gross inspection were separated. All animal studies and procedures were approved by the IACUC committee at Columbia University. All mice were bred under specific pathogen free conditions. Comparisons were made with age- and sex-matched control animals.\n5 μm paraffin embedded or PFA-fixed frozen sections were prepared for immunohistochemistry and immunofluorescence, respectively. For immunofluorescence, slides were washed with 1% Triton X-100 in PBS, rinsed and blocked for 30 min with 2% bovine serum albumin (BSA—Sigma-Aldrich). Primary antibodies and fluorophore-conjugated secondary antibodies were diluted in 2% BSA and incubated over night at 4° C. The following primary antibodies were used; Chrm1 (1:200 Santa Cruz), Ki67 (1:500 Abcam), p-EGFR (1:200 Abcam), and CD44 (1:200 BIO-RAD). For immunohistochemical staining, slides were deparaffinized in xylene and endogenous peroxidase was blocked by incubation with 3% hydrogen peroxide in methanol for visualization using the peroxidase reaction."}, "[2]": {"tested_on": "PDA patients", "assay": "Pilot feasibility study of bethanechol in patients with resectable PDA", "format": "in vivo, human", "experimental": "Our ongoing pilot feasibility study assesses the impact of 1 week of a fixed dose of bethanechol on pharmacodynamics endpoints in resected pancreatic cancer specimens. […] Subjects receive 100 mg of bethanechol by mouth twice daily for 1 week, discontinuing bethanechol 24 hours prior to scheduled surgery. All subjects will be assessed for toxicity while receiving bethanechol, and for 30 days thereafter. The primary endpoint in the pilot study is a change in cell proliferation (Ki-67 index). […] We will compare gene expression profiles and regulatory networks between treated samples with matched controls in our dataset of >200 PDA, RNAseq analysis will be performed."}, "[3]": {"tested_on": "Panc1 cells", "assay": "Soft agar assay, human cells", "format": "cell-based", "conditions": "human cancer cells (Panc1)"}, "[4]": {"tested_on": "CHRM1", "assay": "qRT-PCR of muscarinic receptor expression, human PDAC cell lines", "format": "cell-based", "conditions": "human PDAC cell lines (MiaPaca2 and Panc1), compared to control"}, "[5]": {"tested_on": "Panc1 cells", "assay": "RNAseq of Panc1 cells after pilocarpine treatment", "format": "cell-based, human", "experimental": "Panc1 cells were lysed in RNA lysis buffer supplied in […] PicoPure RNA isolation kit (Life Technologies)(n=4). Total RNA was isolated in accordance with the manufacturer's protocol. cDNA was amplified and libraries were constructed by using SMARTer Ultra Low Input RNA Kit (Clontech Laboratories) and Nextera XT DNA Library Preparation Kit (Illumina) according to the respective manufacturer's instructions. Sequencing was performed with Hiseq 2500 (Illumina) (30 M 100 bp single end reads per sample). Sequenced reads were mapped to the NCBI annotated genes of the […] with BowTie2 and TopHat 2.0.4^5, 6. Reads were counted with HTSeq. Expression datasets were deposited in the Gene Expression Omnibus (GEO)^7 (GSE102880 code: armlggayprundsh). Samples were normalized with the TMM algorithm. The statistical significance of differential expression was estimated with weighted Limma-Voom^8, 9 which runs under Bioconductor/R^10-12. […] First, a screen in terms of Gene Ontology^14 categories for consistency with phenotype was performed. Genes were retained which either: 57 genes fulfilled these requirements, these genes were analyzed further in terms of KEGG pathways^15 with iPathwayGuide^16, 17"}, "[6]": {"tested_on": "human Panc1 cells", "assay": "Western blot of EGFR/MAPK and PI3K/AKT signaling, Panc1", "format": "cell-based", "quoted_text": "To analyze EGFR and the MAPK and PI3K-Akt pathway in human and murine pancreatic cancer cell lines, cells were grown in 12-well plate to around ˜70% confluent, changed the 0.5% FBS medium, added the drugs respectively and incubated them for further 72 hrs incubation in a typical CO2 incubator (˜20% O2). After removing the medium, cells were washed twice with PBS, and protein extraction was performed on ice using RIPA buffer with protease inhibitor (Complete) (Roche) cocktail and phosphatase inhibitor (phosSTOP) (Roche). Protein samples were subsequently separated in 10% Bis-Tris Gel NuPAGE® electrophoresis using MES SDS Running Buffer (Invitrogen, CA, USA). After transfer to nitrocellulose, membranes were blocked with 5% BSA, and samples were probed with the following primary antibodies: p-EGFR (Cell Signaling), EGFR (Cell Signaling), p-BRAF (Cell Signaling), BRAF (Cell Signaling), p-ERK1/2 (phosphorylated p44/42 MAPK) (Thr202/Tyr204) (Cell Signaling), ERK1/2 (p44/42 MAPK) (Thr202/Tyr204) (Cell Signaling), p-PI3K (Cell Signaling), PI3K (Cell Signaling), p-Akt (Cell Signaling), Akt (Cell Signaling), and β-actin (Cell Signaling) followed by horseradish peroxidase-coupled secondary antibody. Immunoreactive bands were visualized using 5-bromo-4-chloro-3-indolyl phosphate/nitro blue tetrazolium and bands were quantified with ImageJ.\nTo analyze EGFR, MAPK and PI3K-AKT pathways in human and murine pancreatic cancer cell lines, cells were grown in 12-well culture plates to ˜70% confluency. The medium was then changed to 0.5% FBS medium, the respective drugs were added, and they were incubated for an additional 72 hours in a CO2 incubator (˜5% CO2). After removing the medium, cells were washed twice with PBS, and protein extraction was performed on ice using RIPA buffer with protease inhibitor (Complete, Roche) cocktail and a phosphatase inhibitor (phosSTOP, Roche). Protein samples were subsequently separated by 10% Bis-Tris Gel NuPAGE® electrophoresis using MES SDS Running Buffer (Invitrogen, CA, USA). After transfer to nitrocellulose, membranes were blocked with 5% BSA, and samples were probed with the following primary antibodies: p-EGFR (Cell Signaling), EGFR (Cell Signaling), p-BRAF (Cell Signaling), BRAF (Cell Signaling), p-ERK1/2 (phosphorylated p44/42 MAPK) (Thr202/Tyr204) (Cell Signaling), ERK1/2 (p44/42 MAPK) (Thr202/Tyr204) (Cell Signaling), p-PI3K (Cell Signaling), PI3K (Cell Signaling), p-AKT (Cell Signaling), AKT (Cell Signaling), and β-actin (Cell Signaling) followed by horseradish peroxidase-coupled secondary antibody. Immunoreactive bands were visualized using 5-bromo-4-chloro-3-indolyl phosphate/nitro blue tetrazolium and bands were quantified with ImageJ."}, "[7]": {"conditions": "vagotomized KC mice, bethanechol treatment"}, "[8]": {"conditions": "Panc1 cells, pilocarpine, preliminary analysis"}, "[9]": {"conditions": "Panc-1 cells treated with pilocarpine"}}, "note": "Entries after “also recorded” stand apart in the source; their conditions may differ.", "data": [{"smiles": "CC(C[N+](C)(C)C)OC(N)=O", "note": "(stereo not shown) [bethanechol, 2-[(aminocarbonyl)oxy]-N,N,N-trimethyl-1-propanaminium]", "values": [{"measurement": "M1R expression", "setting": "[1]; KC mice following vagotomy, bethanechol in drinking water", "result": "reduced"}, {"measurement": "PanIN area", "setting": "[1]; KC+VxPP mice, bethanechol 400 μg/ml in drinking water from 8 to 20 weeks, vs untreated KC+VxPP", "result": "significant reduction; also recorded: reduced"}, {"measurement": "pancreatic tumor (PDAC) incidence", "setting": "[1]; KC+VxPP mice, vs untreated KC+VxPP", "result": "reduced; also recorded: inhibits"}, {"measurement": "pancreatic tumor (PDAC) incidence", "setting": "[1]; KC+VxPP mice, vs untreated KC+VxPP, listed as Bethanechol", "result": "significant reduction; also recorded: significant decrease"}, {"measurement": "pancreatic CD44 expression", "setting": "[1]; KC+VxPP mice", "result": "significant decrease; also recorded: reduced"}, {"measurement": "pancreatic CD44 expression", "setting": "[1]; KC+VxPP mice, listed as Bethanechol", "result": "reduced"}, {"measurement": "area of inflammation", "setting": "[1]; vagotomized KC mice, bethanechol 400 μg/ml, vs KC+VxPP control group", "result": "significant reduction"}, {"measurement": "accelerated tumorigenesis / PanIN progression after vagotomy (KC phenotype)", "setting": "[1]; [7]", "result": "ameliorated; also recorded: suppresses; also recorded: restored the normal KC phenotype; also recorded: reduces"}, {"measurement": "expression of p-EGFR, p-PI3K and p-ERK1/2 (immunohistochemical staining)", "setting": "[1]; [7]", "result": "significantly suppressed"}, {"measurement": "systemic and splenic levels of TNFα, CD11b+ and F4/80+ pancreatic myeloid cells", "setting": "[1]; [7]", "result": "suppressed"}, {"measurement": "tumor-associated macrophages (TAM) increased by vagal denervation", "setting": "[1]; [7]", "result": "abolished"}, {"measurement": "accelerated tumorigenesis / PanIN progression after vagotomy (KC phenotype)", "setting": "[1]; vagotomized KC mice, bethanechol treatment, listed as Bethanechol", "result": "abrogate; also recorded: suppressed"}, {"measurement": "plasma TNFα levels", "setting": "[2]; PDA patients, bethanechol 100 mg twice daily for 1 week, preliminary pilot data", "result": "trend towards lower"}, {"measurement": "Ki-67, CD44, pERK and p-EGFR (IHC staining of PDA tissue)", "setting": "[2]; bethanechol-treated patients compared to untreated patients", "result": "might lead to a decrease"}, {"measurement": "other cytokine levels such as ICAM-1 and MIF", "setting": "[2]; plasma of a study patient, pre- vs post-treatment, cytokine antibody array", "result": "possible reductions"}]}, {"smiles": "CC[C@@H]1C(=O)OC[C@@H]1Cc1cncn1C", "note": "[pilocarpine, (3S,4R)-3-ethyl-4-[(3-methylimidazol-4-yl)methyl]oxolan-2-one]", "values": [{"measurement": "colonies / sphere formation in soft agar", "setting": "[3]", "result": "significantly fewer"}, {"measurement": "Chrm1 expression", "setting": "[4]", "result": "decreased; also recorded: lower"}, {"measurement": "expression of growth related genes EGFR and PI3K (RNAseq)", "setting": "[5]; Panc1 cells, pilocarpine 1 mM, 72 hrs", "result": "suppressed"}, {"measurement": "expression of PIK3CA(PI3K), EGFR, KDR(RTK), ITGAV(ITGA), NTRKB(TRKB) and BRAF(RafB) (RNAseq, KEGG pathways)", "setting": "[5]; Panc1 cells, pilocarpine treated vs untreated", "result": "downregulated"}, {"measurement": "expression of BDNF and NGF", "setting": "[5]; [8]", "result": "moderately decreased"}, {"measurement": "expression of TRK-B receptor (NTRK2)", "setting": "[5]; [8]", "result": "one of the most downregulated genes"}, {"measurement": "expression of BRAF, EGFR, PIK3CA, ITGAV, KDR, and FOXO3 (RNAseq)", "setting": "[5]; [9]", "result": "downregulation"}, {"measurement": "expression of STK11 and FOX06 (RNAseq)", "setting": "[5]; [9]", "result": "upregulation"}, {"measurement": "phosphorylation of EGFR, BRAF, ERK1/2, PI3K and AKT kinases (western blot)", "setting": "[6]; 72 hours", "result": "significantly less phosphorylated"}, {"measurement": "ratios of p-EGFR/EGFR, p-BRAF/BRAF, p-ERK/ERK, p-PI3K/PI3K and p-AKT/AKT (densitometry)", "setting": "[6]; single agent alone", "result": "significantly decreased"}]}]}
